Reference: patent publication US11103549B2, “Use of histone methyltransferase inhibitors and histone deacetylase inhibitors for therapy of Phelan-McDermid Syndrome” (Asddr, LLC, priority 2016, dated 2021)

What was measured:
[1] = test system: EHMT2/EHMT1; conditions: cited from earlier work
[2] = test system: Shank3+/ΔC mice; assay: Three-chamber social interaction assay in Shank3+/ΔC mice; format: in vivo; conditions: for improvement on social preference: i.p. once daily for 3 days
[3] = test system: WT mice; assay: Three-chamber social interaction assay in wild-type mice; format: in vivo; conditions: UNC0642 1 mg/kg, i.p., once daily for 3 days, saline control 62.0%±3.1%
From the text: To test the social preference behavior, juvenile male Shank3+/ΔC mice and age-matched wild-type (WT) mice were subject to the three-chamber social interaction assay, as previously described (Duffney et al., 2015). Briefly, the test is composed of three phases with various stimuli placed in each of two side chambers. Phase 1 contains two identical nonsocial stimuli (NS1 & NS1), phase 2 contains a nonsocial stimulus (NS1) and a social stimulus (Soc1), and phase 3 contains a known social stimulus (Soc1) and a novel social stimulus (Soc2). The preference index for one stimulus over the other stimulus in each phase was compared.

[4] = test system: Shank3+/ΔC mice; conditions: mouse, in vivo
[5] = test system: EHMT1/2; conditions: Liu et al., 2013; cited from earlier work
[6] = test system: Shank3+/ΔC mice; conditions: 5 mg/kg, i.p. 5 days, Kim et al., 2017; cited from earlier work
[7] = Liu et al., 2013; cited from earlier work
[8] = test system: acetylated H3; conditions: Shank3+/ΔC mice, romidepsin 0.25 mg/kg, i.p., once daily for 3 days, cortical slices
[9] = test system: Shank3e4-9 mice; conditions: before and after romidepsin treatment
[10] = test system: BTBR T+tf/J mice; conditions: before and after romidepsin treatment
[11] = test system: class I HDAC; conditions: Klimek et al., 2008; cited from earlier work

## COc1cc2c(cc1OCCCN1CCCC1)N=C(N)C21CCC1 [A-366]
[1]
  selectivity over other methyltransferases and other non-epigenetic targets: > 100 fold
[1]; peptide-competitive inhibitor, read-out: enzymatic IC50 EHMT2/EHMT1
  IC50: ~3 nM

## CC(/C=C/C(=O)NO)=C\[C@@H](C)C(=O)c1ccc(N(C)C)cc1 [Trichostatin A]
[2]; Shank3+/ΔC mice, Trichostatin A 0.5 mg/kg, i.p., once daily for 3 days
  rescue of autism-like social deficits (social preference index): fail to persistently rescue autism-like social deficits

## COc1cc2c(NC3CCN(C(C)C)CC3)nc(N3CCC(F)(F)CC3)nc2cc1OCCCN1CCCC1 [UNC0642, 2-(4,4-Difluoro-1-piperidinyl)-6-methoxy-N-[1-(1-methylethyl)-4-piperidinyl]-7-[3-(1-pyrrolidinyl)propoxy]-4-quinazolinamin]
[2]; Shank3+/ΔC mice, UNC0642 1 mg/kg, i.p., once daily for 3 days
  duration of therapeutic effect on social preference post-injection: ~15 days
[2]; Shank3+/ΔC mice, UNC0642 1 mg/kg, i.p., once daily for 3 days, saline control 22.5%±3.3%
  social preference index (Soc vs. NS, phase 2): 48.9%±2.3%
[2]; Shank3+/ΔC mice, UNC0642, second round of treatment
  effect of repeated administration on social preference: still effective with the repeated administration
[3]
  social preference index (Soc vs. NS, phase 2): 53.4%±5.1%
[4]
  blood chemistry and hematology: indicators for liver and kidney functions, lipid and protein metabolism: within normal ranges
[5]
  selectivity for EHMT1/2 over other methyltransferases: > 2,000 fold
[6]
  toxicity at higher dose and longer duration: lack of toxicity
[7]
  brain penetration in vivo: modest brain penetration

## O=C1CCc2ccc(OCCCCN3CCN(c4cccc(Cl)c4Cl)CC3)cc2N1 [aripiprazole]
[2]; Shank3+/ΔC mice, aripiprazole 1 mg/kg
  improvement on social preference: No improvement

## CNCCC(Oc1ccc(C(F)(F)F)cc1)c1ccccc1 (stereo not drawn) [fluoxetine]
[2]; Shank3+/ΔC mice, fluoxetine 10 mg/kg, i.p. once daily for 2 weeks
  improvement of social preference: failed to induce any improvement

## Cc1nc2n(c(=O)c1CCN1CCC(c3noc4cc(F)ccc34)CC1)CCCC2 [risperidone]
[2]; Shank3+/ΔC mice, risperidone 0.1 mg/kg
  improvement on social preference: No improvement

## CCCC(CCC)C(=O)O [valproic acid]
[2]; Shank3+/ΔC mice, valproic acid 100 mg/kg, i.p., once daily for 3 days
  rescue of autism-like social deficits (social preference index): fail to persistently rescue autism-like social deficits

## Romidepsin
[2]; mouse, in vivo
  duration of effect on social preference post-injection: 21 days
  preference for social stimulus over non-social object: significantly elevated the preference for the social stimulus
[8]
  level of acetylated H3: significantly elevated the level of acetylated H3
[9]
  rescue of autism-like social deficits (social preference index): rescues autism-like social deficits in multiple mouse models of autism
[10]
  rescue of autism-like social deficits (social preference index): rescues autism-like social deficits
[11]
  potency as class I-specific HDAC inhibitor: nanomolar potency
